Consider six molecules from patent US20240392055A1, “UV/HEVL-FILTERING SILICONE HYDROGEL CONTACT LENSES” (Alcon Inc., priority 2023, published 2024).

Data set [1] can be described thus: Absorption edge of visible light photoinitiators. In kind it is physicochemical. The text has this: Table 5 provides information about the photoinitiators used in this example.
Data set [2] in a line: Solubility of photoinitiator in lens formulation. It counts as physicochemical. As to the method:
Four lens formulations without HEVL-absorbing benzotriazole-containing vinylic monomers are prepared to have the following compositions shown in Table 6. TTMB-Sn is not soluble in the formulation at room temperature but is soluble at 40° C. So, the photo-rheology experiment is conducted at 40° C. for this photoinitiator instead of the typical 25° C. (for other three photoinitiators).

A short description of data set [3]: Solubility of HEVL-absorbing vinylic monomers in 1-propanol. It counts as physicochemical. An excerpt:
It is also reported that there are correlations between lower melting points and compound solubility (Bathori, N. B. Acta Cryst., 2014, A70, C990). Changing the R group from —Cl to —CF3 should both shift the absorbance due to a greater electron withdrawing capability, and increase the solubility by reducing the ability of the compound to crystalize due to the bulky —CF3 group. […] UV23 would seem to be a good candidate because the —CF3 group further red shifts the absorbance and the solubility is much improved.

The conditions of data set [4]: empirical substituent parameter of R group on benzotriazole ring; cited from earlier work.
A short description of data set [5]: UV/visible absorption of dilute monomer solutions (absorption peak). It counts as physicochemical. The note with it: HEVL absorption peak; dilute solution in PrOH.

≈ marks a conversion by molar mass, not a printed value.

Regarding `Cc1cc(C)c([C](=O)[Sn]([C](=O)c2c(C)cc(C)cc2C)([C](=O)c2c(C)cc(C)cc2C)[C](=O)c2c(C)cc(C)cc2C)c(C)c1` [TTMB-Sn, tetrakis(2,4,6-trimethylbenzoyl)stannane], in data set [1], the “Abs. edge (nm)” value was determined as 510 nm. The “solubility in the formulation” value in data set [2] (40° C.) is recorded as “soluble”; in data set [2] (room temperature), “not soluble”.

On to `C=C(C)C(=O)OCCCOc1cc(-n2nc3ccc(Cl)cc3n2)c(O)c(C(C)(C)C)c1` [UV28, 2-{2′-Hydroxy-3′-tert-butyl-5′-[3′-methacryloyloxypropoxy]phenyl}-5-chloro-2H-benzotriazole], for which the “Solubility in PrOH” value in data set [3] was determined as 1500 µg/mL (≈ 3.38 mM). In data set [4], the σpara was 0.23. Besides, the “Absorption Peak (nm)” value in data set [5] worked out at 416 nm.

For `CCc1ccccc1[C](=O)[Ge]([C](=O)c1ccccc1CC)([C](=O)c1ccccc1CC)[C](=O)c1ccccc1CC` [TEB-Ge, tetrakis(2-ethylbenzoyl)-germanium], the “Abs. edge (nm)” value in data set [1] was 490 nm.

Consider `C=CC(=O)OCCCOc1cc(-n2nc3ccc(C(F)(F)F)cc3n2)c(O)c(C(C)(C)C)c1` [UV23, 2-[2′-Hydroxy-3′-tert-butyl-5′-(3′-acryloyloxypropoxy)phenyl]-5-trifluoromethyl-2H-benzotriazole], for which the “Solubility in PrOH” value in data set [3] is over 3300 µg/mL. Besides, the σpara in data set [4] is on record as 0.54. Further, the “Absorption Peak (nm)” value in data set [5] was 418 nm.

In the case of `C[CH2][Ge]([CH2]C)([C](=O)c1ccccc1)[C](=O)c1ccccc1` [DBDE-Ge, dibenzoyldiethylgermanium], the “Abs. edge (nm)” value in data set [1] amounted to 480 nm.

For the molecule `C[CH2][Ge]([CH2]C)([C](=O)c1ccc(OC)cc1)[C](=O)c1ccc(OC)cc1` [BMBDE-Ge, Bis(4-methoxybenzoyl)diethylgermanium], the “Abs. edge (nm)” value in data set [1] is listed as 470 nm.
